According to patent US20050239806A1, “Pyrrolopyrimidine derivatives and analogs and their use in the treatment and prevention of diseases” (Ambit Biosciences Corporation, priority 2004, published 2005):

What was measured:
[1] = target: T1, human EGFR (wildtype), EGFR(DKIN) (Homo sapiens, UniProt P00533); assay: Binding of wildtype-EGFR (T7 phage-displayed kinase competition binding)
T1 construct: Kd for EGFR(DKIN); made in house
Source text: (§1) Methods for measuring binding affinities for interactions between small molecules and kinases including FLT3, c-KIT, ABL([…]) [a.k.a. ABL([…])], VEGFR-2 (a.k.a. KDR), and EGFR are described in detail in U.S. application Ser. No. 10/873,835, which is incorporated by reference herein in its entirety. The components of the assays include human kinases expressed as fusions to T7 bacteriophage particles and immobilized ligands that bind to the ATP site of the kinases. […] If the test compound binds the kinase it competes with the immobilized ligand and prevents binding to the solid support. […] The results are read out by quantitating the amount of fusion protein bound to the solid support, which is accomplished by either traditional phage plaque assays or by quantitative PCR (qPCR) using the phage genome as a template. […] The concentration of test molecule that reduces the number of phage bound to the solid support by 50% is equal to the Kd for the interaction between the kinase and the test molecule. Typically, data are collected for twelve concentrations of test compound and, the resultant binding curve is fit to a non-cooperative binding isotherm to calculate Kd. Described in the exemplary assays below is data from binding with varying kinases. […] The term “ND” represents non-determined values. […] The Kd for the interaction between the soluble compound (competitor) molecule and EGFR is equal to the concentration of soluble competitor molecule that causes a 50% reduction in the number of phage recovered in the eluate compared to a control sample lacking soluble competitor.

[2] = target: T2, EGFR (tyrosine 1173 phosphorylation) in A431 cells (Homo sapiens, UniProt P00533); assay: EGFR Autophosphorylation Inhibition Assay in Epidermoid Carcinoma Cell Line A431; assay type: cell-based; conditions: EGF-induced phosphorylation of tyrosine 1173
T2 construct: endogenous in cells; host or cells: A431
Protocol: (§2) Tyrosine 1173 is a major autophosphorylation site resulting from activation of EGFR by epidermal growth factor (EGF). To determine the capacity of a compound to inhibit this phosphorylation activity of EGFR upon itself, the following methodology was used: 4×10^4 A431 cells/well in a 96-well culture plate or 3.6×10^5 A549 cells/well in a 24-well culture plate were cultured overnight at 37° C. in 5% CO2 in low serum culture medium (DMEM supplemented with 0.5% fetal calf serum, 4.500 mg/L glucose and 100 units/ml penicillin-streptomycin). After 16 hours, the cells were pre-incubated in eight serial 3-fold dilutions of test compound (3.3 μM-0.0017 μM) in addition to vehicle control (final concentration on DMSO vehicle was 1%) for two hours. Cells were stimulated by the addition of 5 ng/ml of EGF for five minutes. Cells were then washed with cold phosphate buffered saline (PBS), and incubated for 30 minutes at 4° C. in lysis buffer. Subsequently, the samples were centrifuged at 6000× RCF for 15 minutes, and the level of phosphorylation of EGFR tyrosine 1173 was measured using a sandwich enzyme-linked immunosorbent assay following the manufacturer's recommended protocols (Biosource, Camarillo, Calif.). Total EGFR levels were also measured in the same manner to control for protein level differences. The reported values are those concentrations of compound required to inhibit EGF-induced phosphorylation of tyrosine 1173 by 50%.

[3] = target: T3, EGFR (L747-E749del, A750P) (Homo sapiens, UniProt P00533, A750P/DEL747-749); assay: Binding of mutant-EGFR (phage-displayed kinase competition binding)
T3 construct: made in house
Source text: as §1

[4] = target: T4, EGFR (L747-T751del, Sins) (Homo sapiens, UniProt P00533, DEL747-750/T751S); assay: as above
T4 construct: made in house
T4 sequence (P00533 with tags, fused parts or gaps DEL747-750/T751S limits assumed): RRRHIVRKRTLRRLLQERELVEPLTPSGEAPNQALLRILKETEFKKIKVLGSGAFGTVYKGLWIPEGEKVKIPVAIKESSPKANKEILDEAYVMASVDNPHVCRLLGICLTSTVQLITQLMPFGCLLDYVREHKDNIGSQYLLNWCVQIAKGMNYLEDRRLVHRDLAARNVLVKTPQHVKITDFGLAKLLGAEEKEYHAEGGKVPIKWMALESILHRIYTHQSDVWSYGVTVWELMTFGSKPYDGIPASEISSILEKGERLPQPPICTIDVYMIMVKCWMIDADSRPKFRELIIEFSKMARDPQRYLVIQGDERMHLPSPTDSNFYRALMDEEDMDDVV
Source text: as §1

[5] = target: T5, EGFR (L747-T752del, P753S) (Homo sapiens, UniProt P00533, DEL747-752/P753S); assay: as above
T5 construct: made in house
T5 sequence (P00533 with tags, fused parts or gaps DEL747-752/P753S limits assumed): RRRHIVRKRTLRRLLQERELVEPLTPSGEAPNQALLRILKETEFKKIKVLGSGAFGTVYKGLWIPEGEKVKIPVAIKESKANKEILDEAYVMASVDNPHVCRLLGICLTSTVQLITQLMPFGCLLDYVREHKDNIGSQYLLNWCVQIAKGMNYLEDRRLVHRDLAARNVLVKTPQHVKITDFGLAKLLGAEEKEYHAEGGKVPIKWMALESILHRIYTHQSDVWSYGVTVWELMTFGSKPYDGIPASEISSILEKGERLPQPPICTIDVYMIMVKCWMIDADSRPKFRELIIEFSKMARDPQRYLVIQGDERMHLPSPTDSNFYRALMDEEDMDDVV
Source text: as §1

EGFR (G719S) = target: T6, EGFR (G719S) (Homo sapiens, UniProt P00533, G719S); assay: as above
T6 construct: made in house
T6 sequence (P00533 25-1210 G719S): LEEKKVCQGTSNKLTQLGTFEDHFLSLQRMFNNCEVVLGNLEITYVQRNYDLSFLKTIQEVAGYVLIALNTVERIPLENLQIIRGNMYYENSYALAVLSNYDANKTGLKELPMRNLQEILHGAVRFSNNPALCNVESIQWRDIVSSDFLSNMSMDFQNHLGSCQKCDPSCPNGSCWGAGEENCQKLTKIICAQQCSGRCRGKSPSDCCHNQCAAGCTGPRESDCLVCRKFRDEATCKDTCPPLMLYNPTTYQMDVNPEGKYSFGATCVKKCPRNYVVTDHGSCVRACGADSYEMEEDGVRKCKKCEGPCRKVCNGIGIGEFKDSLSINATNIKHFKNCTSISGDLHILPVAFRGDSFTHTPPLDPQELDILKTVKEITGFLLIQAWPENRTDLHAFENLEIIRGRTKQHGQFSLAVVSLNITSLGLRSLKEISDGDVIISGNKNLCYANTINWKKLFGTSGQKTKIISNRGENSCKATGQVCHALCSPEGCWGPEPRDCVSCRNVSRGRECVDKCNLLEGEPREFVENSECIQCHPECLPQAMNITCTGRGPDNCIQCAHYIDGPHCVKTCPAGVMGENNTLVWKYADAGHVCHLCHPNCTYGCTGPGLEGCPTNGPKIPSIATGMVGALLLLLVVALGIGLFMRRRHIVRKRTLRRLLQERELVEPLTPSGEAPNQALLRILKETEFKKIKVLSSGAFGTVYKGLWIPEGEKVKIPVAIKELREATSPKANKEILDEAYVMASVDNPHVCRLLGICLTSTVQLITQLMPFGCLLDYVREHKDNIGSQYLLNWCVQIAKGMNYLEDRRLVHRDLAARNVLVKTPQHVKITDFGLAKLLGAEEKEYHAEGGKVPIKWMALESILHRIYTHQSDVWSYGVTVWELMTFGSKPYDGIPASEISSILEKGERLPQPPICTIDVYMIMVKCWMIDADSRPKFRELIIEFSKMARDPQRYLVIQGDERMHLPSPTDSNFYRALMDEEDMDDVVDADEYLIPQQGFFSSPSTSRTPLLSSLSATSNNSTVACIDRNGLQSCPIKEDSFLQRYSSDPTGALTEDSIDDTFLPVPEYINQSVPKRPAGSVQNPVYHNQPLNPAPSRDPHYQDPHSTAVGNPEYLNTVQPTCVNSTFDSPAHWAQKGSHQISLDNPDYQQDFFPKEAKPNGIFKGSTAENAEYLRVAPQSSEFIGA
Source text: as §1

EGFR (G719C) = target: T7, EGFR (G719C) (Homo sapiens, UniProt P00533, G719C); assay: as above
T7 construct: made in house
T7 sequence (P00533 25-1210 G719C): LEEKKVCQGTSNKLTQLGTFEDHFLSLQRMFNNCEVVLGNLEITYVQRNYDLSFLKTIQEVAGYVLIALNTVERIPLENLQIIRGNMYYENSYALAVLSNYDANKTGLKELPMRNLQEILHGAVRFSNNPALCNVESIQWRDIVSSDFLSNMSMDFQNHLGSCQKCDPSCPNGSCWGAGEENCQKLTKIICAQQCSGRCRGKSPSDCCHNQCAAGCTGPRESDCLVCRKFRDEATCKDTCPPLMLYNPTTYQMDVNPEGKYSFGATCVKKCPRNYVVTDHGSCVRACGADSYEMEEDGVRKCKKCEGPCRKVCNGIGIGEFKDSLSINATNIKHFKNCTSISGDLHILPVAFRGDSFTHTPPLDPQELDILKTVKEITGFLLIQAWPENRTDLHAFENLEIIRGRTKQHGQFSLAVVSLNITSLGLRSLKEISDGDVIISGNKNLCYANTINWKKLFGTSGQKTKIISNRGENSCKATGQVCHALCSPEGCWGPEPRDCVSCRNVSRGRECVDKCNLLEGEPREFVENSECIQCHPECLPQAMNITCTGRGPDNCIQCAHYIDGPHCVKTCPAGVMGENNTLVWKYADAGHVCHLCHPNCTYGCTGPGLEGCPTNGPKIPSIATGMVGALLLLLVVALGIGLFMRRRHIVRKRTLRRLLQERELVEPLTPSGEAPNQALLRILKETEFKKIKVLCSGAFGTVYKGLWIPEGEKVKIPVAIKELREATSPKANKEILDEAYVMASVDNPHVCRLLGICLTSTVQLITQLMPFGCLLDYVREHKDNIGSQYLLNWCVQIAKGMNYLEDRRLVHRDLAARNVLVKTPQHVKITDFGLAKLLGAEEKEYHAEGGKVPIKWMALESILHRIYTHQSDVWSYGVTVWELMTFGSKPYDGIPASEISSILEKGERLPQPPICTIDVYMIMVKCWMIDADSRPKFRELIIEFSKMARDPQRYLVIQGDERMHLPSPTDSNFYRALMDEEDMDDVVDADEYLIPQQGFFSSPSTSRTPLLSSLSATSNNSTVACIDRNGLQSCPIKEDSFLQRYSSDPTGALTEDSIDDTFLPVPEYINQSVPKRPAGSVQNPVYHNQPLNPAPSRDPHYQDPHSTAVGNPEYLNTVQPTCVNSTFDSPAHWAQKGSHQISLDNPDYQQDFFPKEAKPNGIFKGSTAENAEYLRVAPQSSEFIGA
Source text: as §1

EGFR (E746-A750del) = target: T8, EGFR (E746-A750del) (Homo sapiens, UniProt P00533, DEL746-750); assay: as above
T8 construct: made in house
Source text: as §1

EGFR (S752-1759del) = target: T9, EGFR (S752-1759del) (Homo sapiens, UniProt P00533, DEL752-759); assay: as above
T9 construct: made in house
T9 sequence (P00533 with tags, fused parts or gaps DEL752-759 limits assumed): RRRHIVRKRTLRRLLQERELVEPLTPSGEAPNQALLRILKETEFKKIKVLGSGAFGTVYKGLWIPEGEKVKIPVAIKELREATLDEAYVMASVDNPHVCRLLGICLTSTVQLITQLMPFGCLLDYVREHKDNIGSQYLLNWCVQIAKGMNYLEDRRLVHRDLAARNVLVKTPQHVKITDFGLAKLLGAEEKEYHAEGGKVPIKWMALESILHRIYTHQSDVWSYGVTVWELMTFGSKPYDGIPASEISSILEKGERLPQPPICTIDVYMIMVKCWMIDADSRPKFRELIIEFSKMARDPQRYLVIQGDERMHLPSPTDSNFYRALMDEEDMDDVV
Source text: as §1

EGFR (L858R) = target: T10, EGFR (L858R) (Homo sapiens, UniProt P00533, L858R); assay: as above
T10 construct: made in house
T10 sequence (P00533 25-1210 L858R): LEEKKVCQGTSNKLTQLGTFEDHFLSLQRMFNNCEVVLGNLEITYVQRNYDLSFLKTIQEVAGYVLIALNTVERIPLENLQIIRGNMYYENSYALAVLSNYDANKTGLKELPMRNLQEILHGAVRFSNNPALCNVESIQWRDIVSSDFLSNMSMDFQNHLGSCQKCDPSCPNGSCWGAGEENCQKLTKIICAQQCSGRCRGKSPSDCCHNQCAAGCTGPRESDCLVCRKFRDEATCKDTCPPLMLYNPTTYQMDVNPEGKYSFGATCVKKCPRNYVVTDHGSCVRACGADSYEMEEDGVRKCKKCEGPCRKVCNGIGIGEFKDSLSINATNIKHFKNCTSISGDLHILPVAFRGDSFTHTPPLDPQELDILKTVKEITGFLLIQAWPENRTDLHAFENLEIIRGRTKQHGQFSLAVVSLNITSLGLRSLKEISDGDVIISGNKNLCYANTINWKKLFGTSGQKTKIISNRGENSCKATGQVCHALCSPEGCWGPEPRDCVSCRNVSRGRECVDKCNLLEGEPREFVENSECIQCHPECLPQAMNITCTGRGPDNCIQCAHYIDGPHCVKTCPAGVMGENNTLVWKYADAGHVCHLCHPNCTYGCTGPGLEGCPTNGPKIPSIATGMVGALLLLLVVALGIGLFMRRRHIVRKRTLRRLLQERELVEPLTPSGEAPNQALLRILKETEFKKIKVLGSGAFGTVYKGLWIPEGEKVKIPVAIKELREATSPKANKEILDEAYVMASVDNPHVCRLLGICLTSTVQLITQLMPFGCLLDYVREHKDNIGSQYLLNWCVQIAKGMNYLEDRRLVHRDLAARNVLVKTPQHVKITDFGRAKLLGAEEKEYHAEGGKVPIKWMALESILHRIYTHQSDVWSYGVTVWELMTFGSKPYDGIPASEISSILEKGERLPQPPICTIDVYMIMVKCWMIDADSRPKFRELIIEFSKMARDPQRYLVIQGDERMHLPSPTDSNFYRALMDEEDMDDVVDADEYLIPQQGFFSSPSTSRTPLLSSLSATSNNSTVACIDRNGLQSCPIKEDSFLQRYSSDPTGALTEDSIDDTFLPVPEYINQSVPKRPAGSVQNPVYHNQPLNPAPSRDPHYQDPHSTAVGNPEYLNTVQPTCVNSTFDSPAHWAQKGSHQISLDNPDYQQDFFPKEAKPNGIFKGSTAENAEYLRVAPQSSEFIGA
Source text: as §1

EGFR (L861Q) = target: T11, EGFR (L861Q) (Homo sapiens, UniProt P00533, L861Q); assay: as above
T11 construct: made in house
Source text: as §1

[6] = target: T12, EGFR (tyrosine 1173 phosphorylation) in Lung Cancer Cell Line A459 (Homo sapiens, UniProt P00533); assay: EGFR Autophosphorylation Inhibition Assay in Lung Cancer Cell Line A459; assay type: cell-based; conditions: EGF-induced phosphorylation of tyrosine 1173
T12 construct: endogenous in cells
Protocol: as §2

T1 sequence (P00533 712-979 limits assumed): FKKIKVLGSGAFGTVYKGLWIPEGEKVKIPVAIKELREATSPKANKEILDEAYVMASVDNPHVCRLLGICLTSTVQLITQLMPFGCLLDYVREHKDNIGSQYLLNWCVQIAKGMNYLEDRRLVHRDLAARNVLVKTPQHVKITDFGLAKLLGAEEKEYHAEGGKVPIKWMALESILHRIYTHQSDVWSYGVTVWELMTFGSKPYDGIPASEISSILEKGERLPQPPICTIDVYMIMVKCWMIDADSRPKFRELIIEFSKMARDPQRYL

| Kd [1] | IC50 [2] | Kd [3] | Kd [4] | Kd [5] | Kd (EGFR (G719S)) | Kd (EGFR (G719C)) | Kd (EGFR (E746-A750del)) | Kd (EGFR (S752-1759del)) | Kd (EGFR (L858R)) | Kd (EGFR (L861Q)) | IC50 [6] | SMILES |
| --- | --- | --- | --- | --- | --- | --- | --- | --- | --- | --- | --- | --- |
| < 100 nM | < 100 nM | < 100 nM | < 100 nM | < 100 nM | < 100 nM | < 100 nM | < 100 nM | < 100 nM | < 100 nM | < 100 nM | 100 to 1000 nM | Oc1ccc(-c2cc3c(Oc4cccc(Br)c4)ncnc3[nH]2)cc1 [Compound E3] |
| < 100 nM | 100 to 1000 nM | < 100 nM | < 100 nM | < 100 nM | < 100 nM | < 100 nM | < 100 nM | < 100 nM | < 100 nM | 100 to 1000 nM | 100 to 1000 nM | Clc1ccc(Sc2ncnc3c2[nH]c2ccccc23)cc1Cl [Compound K5] |
| < 100 nM | < 100 nM | < 100 nM | < 100 nM | < 100 nM | < 100 nM | < 100 nM | < 100 nM | < 100 nM | < 100 nM | < 100 nM | 100 to 1000 nM | Oc1ccc(-c2cc3c(Sc4ccccc4)ncnc3[nH]2)cc1 [Compound L2] |
